Here are results for eight compounds from patent publication US11679158B2, “Biodegradable lipids for the delivery of active agents” (ALNYLAM PHARMACEUTICALS, INC., priority 2011, dated 2023).

Series [1] is described as follows: HPLC retention time of cationic lipid in lipid nanoparticles relative to cholesterol. It counts as physicochemical. The note with it: HPLC retention time of lipid in LNP (AD-1661 payload) relative to cholesterol; in min (unit assumed). As to the method:
Furthermore, the HPLC retention time for each biodegradable cationic lipid was measured in lipid nanoparticles prepared from them. The lipid nanoparticles were prepared as described in Example 35 using AD-1661 as the payload. The retention times are reported in the table below relative to the retention time for cholesterol.
The HPLC buffer used was a mixture of two solutions (Solution #1 and Solution #2). • Solution #1: 80% methanol/20% 10 mM NH4HCO3 • Solution #2: 80% methanol/20% isopropanol

Series [2] in a line: Lipid nanoparticle size by dynamic laser light scattering before and after overnight dialysis. It counts as physicochemical. As to conditions: intensity weighted diameter, LNP with AD-1661; for LNPs Size (nm) change: size after dialysis: after overnight dialysis; for LNPs Size (nm) change: size before dialysis: before overnight dialysis. As to the method:
The size of the lipid nanoparticles was measured before and after undergoing dialysis overnight. In general, greater changes in lipid nanoparticle size are indicative of lesser stability.
Dynamic laser light scattering was used to determine the lipid nanoparticle size (expressed as the intensity weighted diameter) with a Zetasizer (Malvern Instruments, Inc. of Westborough, Mass.). All measurements were made at 532 nm wavelength at the scattering angle of 173° using normal resolution mode as the analysis model.

SMILES strings stand for the structures.

Consider `CC(C)CCC(COC(=O)CCCCCCCCCC(CCCCCCCCCC(=O)OCC(CCC(C)C)C(C)C)OC(=O)CCCN(C)C)C(C)C` (stereo not drawn), for which the “t(lipid) − t(chol)” value in series [1] came out at 1.751. Further, in series [2], the “LNPs Size (nm) change: size after dialysis” value is reported as 60 nm and the “LNPs Size (nm) change: size before dialysis” value came to 59 nm.

For `CCCCCC/C=C\COC(=O)C(C)CCCCCCC(CCCCCCC(C)C(=O)OC/C=C\CCCCCC)OC(=O)CCCN(C)C` (stereo not drawn), the “t(lipid) − t(chol)” value in series [1] was found to be 0.848. In series [2], the “LNPs Size (nm) change: size after dialysis” value is given as 77 nm and the “LNPs Size (nm) change: size before dialysis” value came out at 73 nm.

For the compound `CCCCCC(CCCCC)CCOC(=O)CCCCCCCCCC(CCCCCCCCCC(=O)OCCC(CCCCC)CCCCC)OC(=O)CCCN(C)C`, the “t(lipid) − t(chol)” value in series [1] is listed as 3.178.

On to `CCCCCCCC/C=C\COC(=O)CCCCCCCC(CCCCCCCC(=O)OC/C=C\CCCCCCCC)OC(=O)CCCN(C)C`, for which, in series [1], the “t(lipid) − t(chol)” value is 1.44. In series [2], the “LNPs Size (nm) change: size after dialysis” value came to 67 nm and the “LNPs Size (nm) change: size before dialysis” value turned out to be 60 nm.

As for `CC(C)CCC(CCOC(=O)CCCCCCCCCC(CCCCCCCCCC(=O)OCCC(CCC(C)C)C(C)C)OC(=O)CCCN(C)C)C(C)C` (stereo not drawn), the “t(lipid) − t(chol)” value in series [1] was found to be 2.106.

With `CCCCCC(CCCCC)CCOC(=O)CCCCCCCC(CCCCCCCC(=O)OCCC(CCCCC)CCCCC)OC(=O)CCCN(C)C`, the “t(lipid) − t(chol)” value in series [1] turned out to be 2.365. Moreover, in series [2], the “LNPs Size (nm) change: size after dialysis” value is recorded as 56 -> 56 nm and the “LNPs Size (nm) change: size before dialysis” value is recorded as 56 -> 56 nm.

As to `CN(C)CCCC(=O)OC(CCCCCCCC/C=C\CCCCCCCC(=O)OCC(C)(C)C)CCCCCCCC/C=C\CCCCCCCC(=O)OCC(C)(C)C`, the “t(lipid) − t(chol)” value in series [1] is 2.707.

As for `CCCCCCCCCC/C=C\COC(=O)CCCCCCCC(CCCCCCCC(=O)OC/C=C\CCCCCCCCCC)OC(=O)CCCN(C)C`, the “t(lipid) − t(chol)” value in series [1] is 2.219. Also, in series [2], the “LNPs Size (nm) change: size after dialysis” value was determined as 67 nm and the “LNPs Size (nm) change: size before dialysis” value was 68 nm.
